Measurements reported in patent US20170305943A1, “COMPOUNDS FOR THE TREATMENT OF BACTERIAL INFECTIONS” (priority 2014, published 2017).
Values after ≈ are worked out from the molar mass of the structure shown.

How the values were obtained:
Test in all cases: Bacterial Assay: Determination of Antibacterial Activity (MIC, broth microdilution or agar dilution)
Type in all cases: cell-based
[1] = tested on: Clostridium difficile (Isolate ID 027-01); conditions: Clostridioides difficile, 48 h, read-out: MIC (μg/mL) C. difficile (027-01)
Procedure, shortened: (§1)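 MICs were set by CLSI broth microdilution or agar dilution for anaerobes, read visually after 48 hours at 37° C. under anaerobic gas packs. Medium was reinforced clostridial medium with 0.1% defibrinated horse blood; values are binned as A ≦1.01, B >1.0-4.0, C >4.0-16 μg/mL.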

[2] = tested on: Clostridium difficile (Isolate ID ATCC 9689); conditions: Clostridioides difficile, ATCC9689, 48 h, read-out: C. difficile MIC Activity Range
Procedure, shortened: as §1

[3] = tested on: Clostridium difficile (Isolate ID BI-9); conditions: Clostridioides difficile, 48 h, read-out: MIC (μg/mL) C. difficile (B-I9)
Procedure, shortened: as §1

| SMILES | MIC [1] | MIC [2] | MIC [3] |
| --- | --- | --- | --- |
| C#CCCCCCCCCCOc1cccc(C(N)=O)c1F [Compound 9, 2-fluoro-3-(undec-10-yn-1-yloxy)benzamide] | 1 µg/mL (≈ 3.27 µM) | < 1.01 µg/mL | 0.5 µg/mL (≈ 1.64 µM) |
| NC(=O)c1c(F)ccc(OCCCCCCOc2ccc(Cl)cc2)c1F [Compound 133, 3-{[6-(4-chlorophenoxy)hexyl]oxy}-2,6-difluorobenzamide] | 0.5 µg/mL (≈ 1.3 µM) | < 1.01 µg/mL | 0.5 µg/mL (≈ 1.3 µM) |
| NC(=O)c1c(F)ccc(OCCOCCOc2ccc(Cl)cc2)c1F [Compound 136, 3-{2-[2-(4-chlorophenoxy)ethoxy]ethoxy}-2,6-difluorobenzamide] | 4 µg/mL (≈ 10.8 µM) | 1 to 4 µg/mL (≈ 2.69 to 10.8 µM) | 4 µg/mL (≈ 10.8 µM) |
| CCCCCCCCCOc1cccc(C(N)=O)c1F [Compound 8, 2-fluoro-3-(nonyloxy)benzamide] | 0.5 µg/mL (≈ 1.78 µM) | < 1.01 µg/mL | 0.25 µg/mL (≈ 0.889 µM) |
| N/C(=N\O)c1c(F)ccc(OCc2nc(-c3ccc(Cl)cc3)ns2)c1F [Compound 21, 3-{[3-(4-chlorophenyl)-1,2,4-thiadiazol-5-yl]methoxy}-2,6-difluoro-N′-hydroxybenzene-carboximidamide] | 5 µg/mL (≈ 12.6 µM) | < 1.01 µg/mL | 5 µg/mL (≈ 12.6 µM) |
| CCCCCCCCCOc1ccc(F)c(/C(N)=N/O)c1F [Compound 106, 2,6-difluoro-N′-hydroxy-3-(nonyloxy)benzenecarboximidamide] | 0.5 µg/mL (≈ 1.59 µM) | < 1.01 µg/mL | 0.5 µg/mL (≈ 1.59 µM) |
| COc1ccc(-c2nc(COc3ccc(F)c(C(N)=O)c3F)oc2Br)cc1 [Compound 22, 3-{[5-bromo-4-(4-methoxyphenyl)-1,3-oxazo1-2-yl]methoxy}-2,6-difluorobenzamide] | – | < 1.01 µg/mL | – |
| NC(=O)c1c(F)ccc(OCc2cc(-c3ccc(Cl)cc3)cs2)c1F [Compound 188, 3-{[4-(4-chlorophenyl)thiophen-2-yl]methoxy}-2,6-difluorobenzamide] | – | < 1.01 µg/mL | – |
| Cc1cc(CNC(=O)OCC(Oc2ccc(F)c(C(N)=O)c2F)c2nc(-c3ccc(C(F)(F)F)cc3)c(Br)o2)ccn1 (centres unmarked) [Compound 78, 2-{5-bromo-4-[4-(trifluoromethyl)phenyl]-1,3-oxazol-2-yl}-2-(3-carbamoyl-2,4-difluorophenoxy)ethyl [(2-methylpyridin-4-yl)methyl]carbamate] | – | < 1.01 µg/mL | – |
| CCOC(=O)c1ccc(OCCCCOc2ccc(F)c(C(N)=O)c2F)cc1 [Compound 138, ethyl 4-[4-(3-carbamoyl-2,4-difluorophenoxy)butoxy]benzoate] | – | < 1.01 µg/mL | – |
| NC(=O)c1c(F)ccc(OCCCCOc2ccc(OC(F)(F)F)c(Br)c2)c1F [Compound 163, 3-{4-[3-bromo-4-(trifluoromethoxy)phenoxy]butoxy}-2,6-difluorobenzamide] | – | < 1.01 µg/mL | – |
| NC(=O)c1c(F)ccc(OCCCOc2ccc(C(F)(F)F)cc2)c1F [Compound 125, 2,6-difluoro-3-{3-[4-(trifluoromethyl)phenoxy]propoxy}benzamide] | – | 1 to 4 µg/mL (≈ 2.66 to 10.7 µM) | – |
| N/C(=N\O)c1c(F)ccc(OCc2nc(-c3ccc(OC(F)(F)F)cc3)ns2)c1F [Compound 119, 2,6-difluoro-N′-hydroxy-3-({3-[4-(trifluoromethoxy)phenyl]-1,2,4-thiadiazol-5-yl}methoxy)benzenecarboximidamide] | – | 1 to 4 µg/mL (≈ 2.24 to 8.96 µM) | – |
| CCC(Oc1ccc(F)c(C(N)=O)c1F)c1nc(-c2ccc(Cl)cc2)c(Br)o1 (centres unmarked) [Compound 27, 3-{1-[5-bromo-4-(4-chlorophenyl)-1,3-oxazol-2-yl]propoxy}-2,6-difluorobenzamide] | – | 1 to 4 µg/mL (≈ 2.12 to 8.48 µM) | – |
| COc1ccc(-c2nc(COc3ccc(F)c(C(N)=O)c3F)oc2-c2cccc(Cl)c2O)cc1 [Compound 204, 3-{[5-(3-chloro-2-hydroxyphenyl)-4-(4-methoxyphenyl)-1,3-oxazol-2-yl]methoxy}-2,6-difluorobenzamide] | – | 4 to 16 µg/mL (≈ 8.22 to 32.9 µM) | – |
| NC(=O)c1c(F)ccc(OCCCCOc2ccc(Br)cc2)c1F [Compound 176, 3-[4-(4-bromophenoxy)butoxy]-2,6-difluorobenzamide] | – | < 1.01 µg/mL | – |
| NC(=O)c1c(F)ccc(OC(COC(=O)Nc2ccncc2)c2nc(-c3ccc(C(F)(F)F)cc3)c(Br)o2)c1F (centres unmarked) [Compound 67, 2-{5-bromo-4-[4-(trifluoromethyl)phenyl]-1,3-oxazol-2-yl}-2-(3-carbamoyl-2,4-difluorophenoxy)ethyl pyridin-4-ylcarbamate] | – | 1 to 4 µg/mL (≈ 1.59 to 6.38 µM) | – |
| CCNC(=O)NCC(Oc1ccc(F)c(C(N)=O)c1F)c1nc(-c2ccc(C(F)(F)F)cc2)c(Br)o1 (racemic) [Compound 95, 3-(1-{5-bromo-4-[4-(trifluoromethyl)phenyl]-1,3-oxazol-2-yl}-2-[(ethylcarbamoyl)amino]ethoxy)-2,6-difluorobenzamide] | – | < 1.01 µg/mL | – |
| NC(=O)c1c(F)ccc(OCCCCOc2ccc(Cl)c(Cl)c2)c1F [Compound 171, 3-[4-(3,4-dichlorophenoxy)butoxy]-2,6-difluorobenzamide] | – | < 1.01 µg/mL | – |
| NC(=O)c1c(F)ccc(OCCCCOc2ccc(OC(F)F)cc2)c1F [Compound 149] | – | < 1.01 µg/mL | – |
| CC(Nc1ccc(F)c(C(N)=O)c1F)c1nc(-c2ccc(OC(F)(F)F)cc2)c(Br)o1 (centres unmarked) [Compound 212, 3-[(1-{5-bromo-4-[4-(trifluoromethoxy)phenyl]-1,3-oxazol-2-yl}ethyl)amino]-2,6-difluorobenzamide] | – | 1 to 4 µg/mL (≈ 1.98 to 7.9 µM) | – |
| CCOC(=O)c1cc(Cl)ccc1-c1csc(COc2ccc(F)c(C(N)=O)c2F)n1 [Compound 190, ethyl 2-{2-[(3-carbamoyl-2,4-difluorophenoxy)methyl]-1,3-thiazol-4-yl}-5-chlorobenzoate] | – | 4 to 16 µg/mL (≈ 8.83 to 35.3 µM) | – |
| NC(=O)c1c(F)ccc(OCCOCCOc2ccc(C(F)(F)F)cn2)c1F [Compound 156, 2,6-difluoro-3-[2-(2-{[5-(trifluoromethyl)pyridin-2-yl]oxy}ethoxy)ethoxy]benzamide] | – | 1 to 4 µg/mL (≈ 2.46 to 9.84 µM) | – |
| NC(=O)c1c(F)ccc(OCc2nc(-c3ccc(Cl)nc3)cs2)c1F [Compound 201, 3-{[4-(6-chloropyridin-3-yl)-1,3-thiazol-2-yl]methoxy}-2,6-difluorobenzamide] | – | 1 to 4 µg/mL (≈ 2.62 to 10.5 µM) | – |
| COc1ccc(-c2nc(COc3ccc(F)c(C(N)=O)c3F)sc2-c2cccc(Cl)c2O)cc1 [Compound 191, 3-{[5-(3-chloro-2-hydroxyphenyl)-4-(4-methoxyphenyl)-1,3-thiazol-2-yl]methoxy}-2,6-difluorobenzamide] | – | 4 to 16 µg/mL (≈ 7.95 to 31.8 µM) | – |
| Cc1nn(-c2ccc(Cl)cc2)nc1COc1ccc(F)c(C(N)=O)c1F [Compound 200, 3-{[2-(4-chlorophenyl)-5-methyl-2H-1,2,3-triazol-4-yl]methoxy}-2,6-difluorobenzamide] | – | 1 to 4 µg/mL (≈ 2.64 to 10.6 µM) | – |
| NC(=O)c1c(F)ccc(OCCCCOc2ccc(C(F)(F)F)cn2)c1F [Compound 141, 2,6-difluoro-3-(4-{[5-(trifluoromethyl)pyridin-2-yl]oxy}butoxy)benzamide] | – | < 1.01 µg/mL | – |
| NC(=O)c1c(F)ccc(O[C@@H](CO)c2nc(-c3ccc(C(F)(F)F)cc3)c(Br)o2)c1F [Compound 41, 3-[(1S)-1-{5-bromo-4-[4-(trifluoromethyl)phenyl]-1,3-oxazol-2-yl}-2-hydroxyethoxy]-2,6-difluorobenzamide] | – | 1 to 4 µg/mL (≈ 1.97 to 7.89 µM) | – |
| Cc1ncccc1CNC(=O)OCC(Oc1ccc(F)c(C(N)=O)c1F)c1nc(-c2ccc(C(F)(F)F)cc2)c(Br)o1 (centres unmarked) [Compound 90, 2-{5-bromo-4-[4-(trifluoromethyl)phenyl]-1,3-oxazol-2-yl}-2-(3-carbamoyl-2,4-difluorophenoxy)ethyl [(2-methylpyridin-3-yl)methyl]carbamate] | – | < 1.01 µg/mL | – |
